Assay results taken from US20260015574A1, “METHODS FOR SHORTENING LAG PHASE DURATION IN MICROORGANISMS” (YEDA RESEARCH AND DEVELOPMENT CO. LTD., priority 2022, published 2026).

How the values were obtained:
[1] = system: marine bacterium Vibrio sp.; experiment: Lag phase shortening in Vibrio sp.; format: cell-based; settings: 2 μM compound
Description: The bacterial strain Phaeobacter inhibens DSM 17395 was purchased from the German collection of microorganisms and cell cultures (DSMZ, Braunschweig, Germany) and stored at −80° C. with 20% glycerol. Routine cultivation of P. inhibens was conducted at 30° C. in artificial seawater medium (ASW) based on Goyet and Poisson (1989). The ASW medium contained mineral salts (NaCl, 409.41 mM; Na2SO4, 28.22 mM; KCl, 9.08 mM; KBr, 0.82 mM; NaF, 0.07 mM; Na2CO3, 0.20 mM; NaHCO3, 2 mM; MgCl2, 50.66 mM; SrCl2, 0.09 mM), L1 vitamins (thiamine HCl, 100 μg/L; biotin, 0.5 μg/L; vitamin B12, […]), L1 trace elements (Na2EDTA·2H2O, 4.36 mg/L; FeCl3·6H2O, 3.15 mg/L; MnCl2·4H2O, 178.1 μg/L; ZnSO4·7H2O, 23.0 μg/L; CoCl2·6H2O, 11.9 μg/L; CuSO4·5H2O, 2.5 μg/L; Na2MoO4·2H2O, 19.9 μg/L; H2SeO3, 1.29 μg/L; NiSO4·6H2O, 2.63 μg/L; Na3 VO4, 1.84 μg/L; K2CrO4, 1.94 μg/L), and L1 nutrients (NaNO3, 882 μM; NaH2PO4, 36.22 μM). ASW was adjusted to pH 8 using HCl. […] A 96-well Tecan Infinite M Plex plate reader was used for high-resolution monitoring of bacterial growth dynamics at 30° C. […] The growth of bacteria in co-culture with algae was monitored by counting colony forming units (CFU) on ½ YTSS agar plates. The growth of algae was monitored with a CellStream flow cytometer (Merck, Darmstadt, Germany). […]

[2] = system: betaine-homocysteine S-methyltransferase (Bmt); experiment: Methionine synthesis in vitro assay with purified Bmt; format: biochemical, P. inhibens; settings: 200 μM methyl group donor, 2 mM homocysteine, 30° C., 2 h, fluorometric
Description: The expression plasmid pET29b encoding the bmt gene with a Strep-tag II peptide sequence fused to the N-terminus was purchased from Twist Biosciences. The methionine synthase gene mmuM from E. coli was PCR-amplified (Phusion High-Fidelity DNA polymerase, Thermo Scientific) and cloned into the pET29b vector using the CPEC technique (Quan J. & Tian J., 2009). Resulting clones were validated by sanger sequencing. E. coli BL21 electrocompetent cells were transformed with […] of the expression vectors, and cells were selected on LB agar plates containing 50 μg/ml kanamycin. Bacteria were grown in Tryptone Yeast extract Glucose (TYG) medium supplemented with 50 μg/ml kanamycin at 37° C. to mid-log phase (OD600 0.7). Then, cultures were induced with 0.2 mM of IPTG for 3 hours at 37° C. Bacteria were harvested by centrifugation (4,000 rpm for 15 min at 4° C.) and cells were resuspended in 20 mL of NP buffer (50 mM NaH2PO4, 300 mM NaCl, pH 8) and 100 μl of 10× Protease inhibitor (Sigma). […] The Protein concentration was determined with the Protein Assay Dye Reagent Concentrate (BioRad) following the manufacturer's instructions. […]
The methionine synthesis in vitro assay was based on the protocol of Ranocha et al., 2000. […] Methionine formation was measured from 20 μl of the in vitro reactions using the Fluorometric Methionine Assay Kit (Sigma; results depicted in FIG. 14). […]

## C[S+](C)CCC(=O)[O-] [DMSP, dimethylsulfoniopropionate]
[1]
  lag phase shortening: induction of the lag phase shortening
[2]
  methionine formation with DMSP as methyl group donor: catalyzes the production of methionine
